Measurements from patent US11739101B2, “Bifunctional degraders of hematopoietic progenitor kinase and therapeutic uses thereof” (Nurix Therapeutics, Inc., priority 2020, dated 2023).

Each compound was assayed against T1, HPK1 (Homo sapiens, UniProt Q92918) (assay: HPK1 Cellular HiBiT Degradation Assay). Conditions: HiBiT-tagged HPK1 Jurkat cells, 24 hours, 10 uM to 0.1 nM; Dmax = 100 minus lowest % HPK1 remaining vs DMSO vehicle.
T1 construct: A HiBiT tag was introduced by CRISPR on the N terminus of HPK1 in Jurkat cells; host or cells: Jurkat (ATCC TIB-152), monoclonal CRISPR HiBiT knock-in line
T1 sequence (Q92918 whole entry): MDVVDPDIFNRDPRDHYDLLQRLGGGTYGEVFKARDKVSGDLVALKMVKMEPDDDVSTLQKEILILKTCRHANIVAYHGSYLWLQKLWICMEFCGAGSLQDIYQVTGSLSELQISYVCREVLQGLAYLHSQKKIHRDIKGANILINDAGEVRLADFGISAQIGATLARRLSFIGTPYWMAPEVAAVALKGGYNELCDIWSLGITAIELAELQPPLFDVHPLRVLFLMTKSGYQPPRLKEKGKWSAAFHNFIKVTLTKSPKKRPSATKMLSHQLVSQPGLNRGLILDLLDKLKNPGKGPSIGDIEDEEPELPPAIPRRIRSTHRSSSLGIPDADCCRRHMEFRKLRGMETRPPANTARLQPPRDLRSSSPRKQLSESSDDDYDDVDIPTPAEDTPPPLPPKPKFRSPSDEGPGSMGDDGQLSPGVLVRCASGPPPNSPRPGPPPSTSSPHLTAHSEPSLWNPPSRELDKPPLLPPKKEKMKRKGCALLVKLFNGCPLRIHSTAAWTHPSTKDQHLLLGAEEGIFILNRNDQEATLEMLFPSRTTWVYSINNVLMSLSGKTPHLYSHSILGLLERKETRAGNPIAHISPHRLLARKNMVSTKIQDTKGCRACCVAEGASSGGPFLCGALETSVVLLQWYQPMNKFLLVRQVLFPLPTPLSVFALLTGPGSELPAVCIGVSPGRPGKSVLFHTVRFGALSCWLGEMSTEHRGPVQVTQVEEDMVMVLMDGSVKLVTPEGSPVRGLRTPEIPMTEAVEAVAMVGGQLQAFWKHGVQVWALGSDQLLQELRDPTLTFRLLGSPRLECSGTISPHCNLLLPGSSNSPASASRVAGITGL
Type: cell-based
Method in brief: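 Dmax is derived from four-parameter curves of % HPK1 remaining, as 100 minus the lowest value, normalized to DMSO-treated cells with parental Jurkat background subtracted. HiBiT-HPK1 knock-in Jurkat cells got compound for 24 hours (final 10 uM to 0.1 nM, 11 points) before lytic HiBiT luminescence. Cytotoxicity was checked on parallel CellTiter-Glo plates.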

| SMILES | Dmax [%] |
| --- | --- |
| Cc1cc(F)c(Nc2nc(-c3ccc4c(c3)N([C@H]3C[C@@H](N5CCCCC5)C3)C(=O)C43CCN(C(=O)c4ccc(C5CCN(CC(=O)NCCNc6cccc7c6C(=O)N(C6CCC(=O)NC6=O)C7=O)CC5)cc4)CC3)cc3ncn(C(C)C)c23)cc1C(=O)NC(C)C (stereo partly drawn) [Example 88, 5-[(6-{1′-[4-(1-{[(2-{[2-(2,6-dioxopiperidin-3-yl)-1,3-dioxoisoindol-4-yl]amino}ethyl)carbamoyl]methyl}piperidin-4-yl)benzoyl]-2-oxo-1-[(1s,3s)-3-(piperidin-1-yl)cyclobutyl]spiro[indole-3,4′-piperidin]-6-yl}-3-isopropylimidazo[4,5-c]pyridin-4-yl)amino]-4-fluoro-N-isopropyl-2-methylbenzamide] | > 65 |
| Cc1cc(F)c(Nc2nc(-c3ccc4c(c3)N([C@H]3C[C@@H](N5CCCCC5)C3)C(=O)C43CCN(C(=O)c4ccc(CN5CCN(c6ccc7c(c6)C(=O)N(C6CCC(=O)NC6=O)C7=O)CC5)cc4)CC3)cc3ncn(C(C)C)c23)cc1C(=O)NC(C)C (stereo partly drawn) [Example 91, 5-[(6-{1′-[4-({4-[2-(2,6-dioxopiperidin-3-yl)-1,3-dioxoisoindol-5-yl]piperazin-1-yl}methyl)benzoyl]-2-oxo-1-[(1s,3s)-3-(piperidin-1-yl)cyclobutyl]spiro[indole-3,4′-piperidin]-6-yl}-3-isopropylimidazo[4,5-c]pyridin-4-yl)amino]-4-fluoro-N-isopropyl-2-methylbenzamide] | 45 to 65 |
| Cc1cc(F)c(Nc2nc(-c3ccc4c(c3)N([C@H]3C[C@@H](N5CCCCC5)C3)C(=O)C43CCN(C(=O)c4ccc(C(=O)N5C6CCC5CN(c5ccc7c(c5)C(=O)N(C5CCC(=O)NC5=O)C7=O)C6)cc4)CC3)cc3ncn(C(C)C)c23)cc1C(=O)NC(C)C (stereo partly drawn) [Example 93, 5-({6-[1′-(4-{3-[2-(2,6-dioxopiperidin-3-yl)-1,3-dioxoisoindol-5-yl]-3,8-diazabicyclo[3.2.1]octane-8-carbonyl}benzoyl)-2-oxo-1-[(1s,3s)-3-(piperidin-1-yl)cyclobutyl]spiro[indole-3,4′-piperidin]-6-yl]-3-isopropylimidazo[4,5-c]pyridin-4-yl}amino)-4-fluoro-N-isopropyl-2-methylbenzamide] | 45 to 65 |
| Cc1cc(F)c(Nc2nc(-c3ccc4c(c3)N([C@H]3C[C@@H](N5CCCCC5)C3)C(=O)C43CCN(C(=O)c4ccc(N(C)C5CCN(c6ccc7c(c6)C(=O)N(C6CCC(=O)NC6=O)C7=O)CC5)cc4)CC3)cc3ncn(C(C)C)c23)cc1C(=O)NC(C)C (stereo partly drawn) [Example 97, 5-{[6-(1′-{4-[(1-{2-[2,6-dioxopiperidin-3-yl]-1,3-dioxoisoindol-5-yl}piperidin-4-yl)(methyl)amino]benzoyl}-2-oxo-1-[(1s,3s)-3-(piperidin-1-yl)cyclobutyl]spiro[indole-3,4′-piperidin]-6-yl)-3-isopropylimidazo[4,5-c]pyridin-4-yl]amino}-4-fluoro-N-isopropyl-2-methylbenzamide] | 45 to 65 |

Results, then the compound that gave them:

| Dmax [%] | SMILES |
| --- | --- |
| < 45 | Cc1cc(F)c(Nc2nc(-c3ccc4c(c3)N([C@H]3C[C@@H](N5CCCCC5)C3)C(=O)C43CCN(C(=O)[C@H]4CCN(C(=O)[C@H]5CC[C@H](Nc6cccc7c6C(=O)N(C6CCC(=O)NC6=O)C7=O)CC5)C4)CC3)cc3ncn(C(C)C)c23)cc1C(=O)NC(C)C (stereo partly drawn) [Example 87, 5-((6-(1′-((3S)-1-((1R,4S)-4-((2-(2,6-dioxopiperidin-3-yl)-1,3-dioxoisoindolin-4-yl)amino)cyclohexane-1-carbonyl)pyrrolidine-3-carbonyl)-2-oxo-1-((1s,3R)-3-(piperidin-1-yl)cyclobutyl)spiro[indoline-3,4′-piperidin]-6-yl)-3-isopropyl-3H-imidazo[4,5-c]pyridin-4-yl)amino)-4-fluoro-N-isopropyl-2-methylbenzamide] |
| > 65 | Cc1cc(F)c(Nc2nc(-c3ccc4c(c3)N([C@H]3C[C@@H](N5CCCCC5)C3)C(=O)C43CCN(C(=O)C4CCN(Cc5ccc(C(=O)NCCNc6cccc7c6C(=O)N(C6CCC(=O)NC6=O)C7=O)nc5)CC4)CC3)cc3ncn(C(C)C)c23)cc1C(=O)NC(C)C (stereo partly drawn) [Example 89, N-(2-{[2-(2,6-dioxopiperidin-3-yl)-1,3-dioxoisoindol-4-yl]amino}ethyl)-5-[(4-{[6-(4-{[2-fluoro-5-(isopropylcarbamoyl)-4-methylphenyl]amino}-3-isopropylimidazo[4,5-c]pyridin-6-yl)-2-oxo-1-[(s,3s)-3-(piperidin-1-yl)cyclobutyl]spiro[indole-3,4′-piperidin]-1′-yl]carbonyl}piperidin-1-yl)methyl]pyridine-2-carboxamide] |
| 45 to 65 | Cc1cc(F)c(Nc2nc(-c3ccc4c(c3)N([C@H]3C[C@@H](N5CCCCC5)C3)C(=O)C43CCN(C(=O)CN4CCC(c5ccc(C(=O)NCCNc6cccc7c6C(=O)N(C6CCC(=O)NC6=O)C7=O)cc5)CC4)CC3)cc3ncn(C(C)C)c23)cc1C(=O)NC(C)C (stereo partly drawn) [Example 90, 5-[(6-{1′-[2-(4-{4-[(2-{[2-(2,6-dioxopiperidin-3-yl)-1,3-dioxoisoindol-4-yl]amino}ethyl)carbamoyl]phenyl}piperidin-1-yl)acetyl]-2-oxo-1-[(1s,3s)-3-(piperidin-1-yl)cyclobutyl]spiro[indole-3,4′-piperidin]-6-yl}-3-isopropylimidazo[4,5-c]pyridin-4-yl)amino]-4-fluoro-N-isopropyl-2-methylbenzamide] |
| 45 to 65 | Cc1cc(F)c(Nc2nc(-c3ccc4c(c3)N([C@H]3C[C@@H](N5CCCCC5)C3)C(=O)C43CCN(C(=O)c4ccc(C(=O)N5CCN(c6cccc7c6C(=O)N(C6CCC(=O)NC6=O)C7=O)CC5)cc4)CC3)cc3ncn(C(C)C)c23)cc1C(=O)NC(C)C (stereo partly drawn) [Example 95, 5-({6-[1′-(4-{4-[2-(2,6-dioxopiperidin-3-yl)-1,3-dioxoisoindol-4-yl]piperazine-1-carbonyl}benzoyl)-2-oxo-1-[(1s,3s)-3-(piperidin-1-yl)cyclobutyl]spiro[indole-3,4′-piperidin]-6-yl]-3-isopropylimidazo[4,5-c]pyridin-4-yl}amino)-4-fluoro-N-isopropyl-2-methylbenzamide] |
| 45 to 65 | Cc1cc(F)c(Nc2nc(-c3ccc4c(c3)N([C@H]3C[C@@H](N5CCCCC5)C3)C(=O)C43CCN(C(=O)[C@H]4CC[C@@H](C(=O)N5CCC(Oc6cccc7c6C(=O)N(C6CCC(=O)NC6=O)C7=O)CC5)CC4)CC3)cc3ncn(C(C)C)c23)cc1C(=O)NC(C)C (stereo partly drawn) [Example 96, 4-fluoro-N-isopropyl-5-[(3-isopropyl-6-{2-oxo-1-[(1s,3s)-3-(piperidin-1-yl)cyclobutyl]-1′-[(1s,4s)-4-[4-({2-[(3S)-2,6-dioxopiperidin-3-yl]-1,3-dioxoisoindol-4-yl}oxy)piperidine-1-carbonyl]cyclohexanecarbonyl]spiro[indole-3,4′-piperidin]-6-yl}imidazo[4,5-c]pyridin-4-yl)amino]-2-methylbenzamide] |
